What is called viability is a read-out of living cells in per cent, often relative to untreated cells.

These results are taken from article PMC12040169 (PLOS Biology, 2025).

A short description of the data set: in vitro. Conditions: human, hela cells, % viability.

As for `CS(=O)(=O)N(CC(=O)O)c1cccc2ccccc12` [CBK262420], the viability at 28.5 h, 10 µM stood at 101%.

Take `Cc1ccc(Cl)cc1N(CC(=O)O)S(=O)(=O)c1ccccc1` [CBK262424]: the viability at 28.5 h, 10 µM was 93%.

With `Cc1c(C)n(Cc2ccccc2)c2ccc(C(=O)OCCN3CCOCC3)cc12` [CBK262427], the viability at 28.5 h, 10 µM worked out at 104%.

With `Cc1c([N+](=O)[O-])c([N+](=O)[O-])nn1CC(=O)NCc1cccnc1` [CBK262428], the viability at 28.5 h, 10 µM (bulk resorufin, single well) stood at 97.2%.

As to `CC1=NN(c2nc(-c3ccc(Br)cc3)cs2)C(=O)C1/N=N/c1cccc(CO)c1` (centres unmarked) [CBK262429], the viability at 28.5 h, 10 µM was determined as 104%.

On to `Cc1cc(C)cc(CC(C)Cc2nc3ccccc3[nH]2)c1` (centres unmarked) [CBK262432], for which the viability at 28.5 h, 10 µM is 92.3%.

`CC1=NN(c2nc(-c3cccc([N+](=O)[O-])c3)cs2)C(=O)C1/N=N/c1ccc(S(N)(=O)=O)cc1` (centres unmarked) [CBK262434]: the viability at 28.5 h, 10 µM was 94%.

Regarding `COc1cc(Cl)cc(/C=N/Nc2nc(Nc3ccc(C)c(Cl)c3)nc(N3CCOCC3)n2)c1O` [CBK262436], the viability at 28.5 h, 10 µM turned out to be 102%.

Turning to `CC1=NN(c2nc(-c3ccc(Br)cc3)cs2)C(=O)C1/N=N/c1ccccc1C(=O)O` (centres unmarked) [CBK262440], the viability at 28.5 h, 10 µM was 91.8%.

In the case of `CCOc1nc(Nc2nc(-c3ccccc3)cs2)nc(OCC)n1` [CBK262442], the viability at 28.5 h, 10 µM was 98.1%.

For `O=C(CN1CCSCC1)NNC(=S)Nc1ccccc1` [CBK262445], the viability at 28.5 h, 10 µM turned out to be 102%.

Take `CC12CCC(C(=O)N(CC(O)Cn3c4ccc(Br)cc4c4cc(Br)ccc43)C1=O)C2(C)C` (centres unmarked) [CBK262449]: the viability at 28.5 h, 10 µM is 94.4%.

For `CCNC(=O)c1c(O)nc2ccccc2c1O` [CBK262450], the viability at 28.5 h, 10 µM was determined as 103%.

With `N=c1n(CCN2CCCCC2)c2ccccc2n1CC(O)COc1ccccc1` (centres unmarked) [CBK262451C], the viability at 28.5 h, 10 µM stood at 88.5%.

Take `CCCC(=O)Nc1sc(C)c(C)c1C(=O)Nc1ccccc1OC` [CBK262455]: the viability at 28.5 h, 10 µM was 104%.

Consider `CC(=O)c1cccc(NC(=O)/C(=C\c2cccnc2)NC(=O)c2ccc(C)cc2)c1` [CBK262456], for which the viability at 28.5 h, 10 µM was determined as 88.6%.

As to `O=C(NNC1=C(C(=O)C(F)(F)F)CCC1)c1cccnc1` [CBK262459], the viability at 28.5 h, 10 µM worked out at 89.1%.

`c1csc(CNc2nc3ccccc3n2CCN2CCOCC2)c1` [CBK262462]: the viability at 28.5 h, 10 µM stood at 109%.

Turning to `Cc1ccc([N+](=O)[O-])cc1NC(=O)C1Cc2ccccc2CN1C(=O)OCc1ccccc1` (centres unmarked) [CBK262463], the viability at 28.5 h, 10 µM was 100%.

As to `CC1(c2ccccc2)CC(C)(C)N(C(=O)CSc2nc3ccccc3o2)c2ccccc21` (centres unmarked) [CBK262466], the viability at 28.5 h, 10 µM is 104%.

`C/C(=N\NC(=N)SC1CC(=O)N(c2ccc(C(=O)O)cc2)C1=O)c1cccs1` (centres unmarked) [CBK262471]: the viability at 28.5 h, 10 µM turned out to be 103%.

On to `Cc1ccc(C2=NN(C(=N)SC3CC(=O)N(c4ccc(C(=O)O)cc4)C3=O)C(c3ccc(Cl)cc3)C2)cc1` (centres unmarked) [CBK262472], for which the viability at 28.5 h, 10 µM was 91.5%.

On to `Oc1ccc(/C=N/c2ccc(O)c(-c3nc4ccccc4s3)c2)cc1O` [CBK262473], for which the viability at 28.5 h, 10 µM is 98.9%.

Take `CC(=O)CCc1oc2c([N+](=O)[O-])cccc2c1-c1ccc(C)o1` [CBK262476]: the viability at 28.5 h, 10 µM was determined as 89.4%.

As to `O=C(O)c1ccc(S(=O)(=O)NC2CCS(=O)(=O)C2)cc1` (centres unmarked) [CBK262477], the viability at 28.5 h, 10 µM is 110%.

As to `Cc1ccc(S(=O)(=O)N(CC(=O)N/N=C\c2ccc3c(c2)OCO3)c2cccc3cccnc23)cc1` [CBK262478], the viability at 28.5 h, 10 µM was found to be 101%.

As to `CC(C)(C)c1cc(C(=O)Cn2c(=N)n(Cc3ccccc3)c3ccccc32)cc(C(C)(C)C)c1O` [CBK262480B], the viability at 28.5 h, 10 µM worked out at 97.5%.

With `N=c1n(CC(=O)c2ccc(Br)s2)c2ccccc2n1Cc1ccccc1` [CBK262482B], the viability at 28.5 h, 10 µM is 91.4%.

For `O=C(O)c1cc(N/N=C/c2ccc(-c3ccc(Cl)c(C(=O)O)c3)o2)ccc1Cl` [CBK262483], the viability at 28.5 h, 10 µM was determined as 88.8%.

On to `Cc1ccc(C(=O)O/C(=C/c2nc3ccccc3n2Cc2cccc3ccccc23)c2ccc(C)cc2)cc1` [CBK262485], for which the viability at 28.5 h, 10 µM worked out at 108%.

In the case of `CN1CCC(=NNC(=O)CN(c2cccc(Cl)c2)S(=O)(=O)c2ccccc2)CC1` [CBK262489], the viability at 28.5 h, 10 µM stood at 98%.

In the case of `NC(=O)CN(CC(N)=O)S(=O)(=O)c1ccccc1` [CBK262490], the viability at 28.5 h, 10 µM turned out to be 85.4%.

Regarding `O=C1Nc2ccc([N+](=O)[O-])cc2C1(O)N1CCCCC1` (centres unmarked) [CBK262496], the viability at 28.5 h, 10 µM was determined as 80.6%.

Regarding `Cc1cccc(Nc2nc(N/N=C/c3c[nH]nc3-c3ccccc3)nc(N3CCC(C)CC3)n2)c1C` [CBK262498], the viability at 28.5 h, 10 µM turned out to be 89.3%.

For `O=C(CN(Cc1ccccc1)S(=O)(=O)c1ccc2c(c1)OCCO2)Nc1ccc2c(c1)OCCO2` [CBK262499], the viability at 28.5 h, 10 µM worked out at 98.5%.

Turning to `COc1ccc(NC(=O)C2CN(S(=O)(=O)c3ccccc3)CCN2S(=O)(=O)c2ccccc2)cc1` (centres unmarked) [CBK262500], the viability at 28.5 h, 10 µM is 98.5%.

With `NS(=O)(=O)c1ccc(Nc2nc(-c3cccs3)cs2)cc1` [CBK262502], the viability at 28.5 h, 10 µM amounted to 96.2%.

Regarding `Cc1cc(NS(=O)(=O)c2ccc(Nc3nc(-c4cccs4)cs3)cc2)no1` [CBK262504], the viability at 28.5 h, 10 µM stood at 101%.

On to `COc1ccc([N+](=O)[O-])cc1-c1ccc(/C=N/NC(=O)Cn2nnnc2N)o1` [CBK262505], for which the viability at 28.5 h, 10 µM was 92.2%.

As to `O=C(CSc1ccc2ccccc2n1)NNC(=O)c1cccc([N+](=O)[O-])c1` [CBK262506], the viability at 28.5 h, 10 µM was determined as 91.7%.

Consider `CC1=CC(C)C(CN(CCC[N+](C)(C)C)C(=O)Nc2ccccc2)C(C)C1` (centres unmarked) [CBK262507I], for which the viability at 28.5 h, 10 µM came out at 84.3%.

For the compound `COc1ccc2c(c1)nc(SCC(O)c1ccccc1)n2C` (centres unmarked) [CBK262508], the viability at 28.5 h, 10 µM amounted to 97.6%.

Regarding `O=C(CC1Nc2ccccc2NC1=O)Nc1cccc(C(F)(F)F)c1` (centres unmarked) [CBK262510], the viability at 28.5 h, 10 µM stood at 99.6%.

For `O=[N+]([O-])c1cnc(NCCCn2ccnc2)c([N+](=O)[O-])c1` [CBK262511], the viability at 28.5 h, 10 µM was determined as 94.4%.

As for `O=C1CN(S(=O)(=O)c2ccc(NS(=O)(=O)c3ccc4ccccc4c3)cc2)CC(=O)N1` [CBK262513], the viability at 28.5 h, 10 µM is 95.4%.

Turning to `O=C(O)c1cc(S(=O)(=O)NC(CO)C(O)c2ccc([N+](=O)[O-])cc2)ccc1Br` (centres unmarked) [CBK262515], the viability at 28.5 h, 10 µM came out at 104%.

Regarding `CC1(NC(=O)CC[N+]23CCN(CC2)CC3)CS(=O)(=O)CC1S(=O)(=O)[O-]` (centres unmarked) [CBK262518], the viability at 28.5 h, 10 µM was 92%.

Turning to `O=C1CC(c2ccccc2)CC(=O)C1=CNCc1ccccn1` (centres unmarked) [CBK262521], the viability at 28.5 h, 10 µM was determined as 105%.

Regarding `O=C(Nc1ccc(Cc2ccncc2)cc1)c1ccc(CSc2ccc(Cl)cc2)cc1` [CBK262526], the viability at 28.5 h, 10 µM amounted to 86.9%.

Take `COc1cc(C=C2C(=O)NC(=O)NC2=O)cc(I)c1OCc1ccc(Cl)cc1Cl` [CBK262528]: the viability at 28.5 h, 10 µM (bulk resorufin, single well) turned out to be 91.8%.

As for `O=C1c2cccc3cccc(c23)C(=O)N1CCN1CCN(S(=O)(=O)c2ccccc2[N+](=O)[O-])CC1` [CBK262530], the viability at 28.5 h, 10 µM came to 97.7%.

`Cc1ccc2c(c1)c(-c1ccccc1)c(-c1ccccc1)n2CC(O)Cn1cnc(-c2ccccc2)c1-c1ccccc1` (centres unmarked) [CBK262531]: the viability at 28.5 h, 10 µM was determined as 72.7%.

Turning to `CC1(C)Cc2ccccc2C(NC(Cc2ccccc2)C(=O)O)=N1` (centres unmarked) [CBK262533], the viability at 28.5 h, 10 µM was determined as 107%.
